{
  "source": "patent US9233121B2",
  "about": "“Compositions and methods for the treatment of cancer” (BOARD OF REGENTS OF THE UNIVERSITY OF NEBRASKA, priority 2011, dated 2016)",
  "format_in_all_cases": "cell-based, human",
  "key": {"SW1990-SP cells [1]": {"system": "SW1990-SP cells", "experiment": "Drug sensitivity: gemcitabine treatment of SP cells", "conditions": "6.0 μM gemcitabine, 4, 10 and 20 days", "experimental": "(§1) Both SP and NSP cells were cultured in gelatinized tissue culture dishes in stem cell specific medium containing Dulbecco's Modified Eagle's Medium (DMEM; GIBCO) and F12 supplemented with 10% ES specific fetal bovine serum (FBS; Invitrogen), L-glutamine (GIBCO), 100 nM nonessential amino acids (GIBCO), 1000 U/ml LIF (Sigma), bFGF (Invitrogen) and Pen/Strp. Two different conditions were maintained for both SP and NSP cells. First, both SP and NSP cells were maintained in the above-mentioned stem cell specific media and in another condition both the cells were maintained for a few days in 10% FBS containing DMEM media which was replaced with stem cell specific medium. The SP cells have also been grown in stem cell specific media and NSP cells have been grown in 10% FBS containing DMEM media.\n(§2) The human hPaf1/PD2 region was targeted with specific siRNA (sequence 5′-[…]-3′; SEQ ID NO: 1). Synthetic sense and antisense oligonucleotides (Dharmacon, Lafayette, Colo.) were annealed in 100 mM potassium acetate, 30 mM HEPES-KOH (pH 7.4), and 2 mM magnesium acetate for one minute at 90° C. and one hour at 37° C., and frozen. […]\n(§3) Tumor relapse occurs in cancer patients due to the important phenomena known as drug resistance. […] The expression of ALDH1 was analyzed in the gemcitabine treated SW1990-SP cells."}, "SW1990-SP cells [2]": {"system": "SW1990-SP cells", "experiment": "hPaf1/PD2 knockdown with gemcitabine treatment in SP cells: phenotype, viability, FACS apoptosis", "experimental": "The human hPaf1/PD2 region was targeted with specific siRNA (sequence 5′-[…]-3′; SEQ ID NO: 1). Synthetic sense and antisense oligonucleotides (Dharmacon, Lafayette, Colo.) were annealed in 100 mM potassium acetate, 30 mM HEPES-KOH (pH 7.4), and 2 mM magnesium acetate for one minute at 90° C. and one hour at 37° C., and frozen. Oligonucleotides were transfected into cells with TransIT-TKO (Mirus, Madison, Wis.) in accordance with the supplier's recommendations. Gemcitabine (6 μM) treatment was done for 20 days.\nFollowing the previous drug sensitivity experiment, hPaf1/PD2 was transiently knocked down using RNAi oligos. The knockdown was carried out in vitro under stem cell specific culture condition."}, "SW1990 NSP cells": {"system": "SW1990 NSP cells", "experiment": "Drug sensitivity: gemcitabine treatment of NSP cells", "conditions": "6.0 μM gemcitabine, several days", "experimental": "as §1, §2, §3"}, "ALDH1": {"system": "ALDH1", "experiment": "Western blot of ALDH1 in gemcitabine treated SP cells", "conditions": "gemcitabine (6 μM) treated SW1990-SP cells compared to non-treated SP cells", "experimental": "(§4) SP and NSP cells were processed for protein extraction and western blotting using standard procedures. Briefly, the cells were washed twice in PBS and lysed in RIPA buffer (100 mM Tris, 5 mM EDTA, 5% NP40; pH8.0) containing protease inhibitors (1 mM phenyl-methyl sulphonyl fluoride, 1 μg/ml aprotinin, 1 μg/ml leupeptin) and kept at 4° C. and supernatant were collected. Resolved proteins were transferred on to the PVDF membrane. After a quick wash in PBST (Phosphate buffered saline and 0.1% Tween 20), the membranes were blocked in 5% nonfat dry milk in PBS for at least 1 hour and then incubated with primary antibodies (anti-hPaf1/PD2, anti-ALDH1, anti-CD133, anti-CD44, anti-Shh and anti-β-actin) (diluted in 3% BSA in PBS) for overnight at 4° C. Then the membrane was washed (3×10 minutes) in PBST at room temperature and probed with 1:2000 diluted horseradish peroxidase-conjugated anti-mouse or anti-rabbit secondary antibodies for 1 hour at room temperature and washed 5×10 minutes with PBST. The signal was detected with an ECL chemiluminescence kit (Amersham Bioscience, UK).\nas §3"}, "hPaf1/PD2": {"system": "hPaf1/PD2", "experiment": "Western blot of hPaf1/PD2 in gemcitabine treated SP cells", "conditions": "gemcitabine (6 μM) treated SW1990-SP cells compared to untreated SP cells", "experimental": "as §4"}},
  "data": [
    {"smiles": "Nc1ccn([C@@H]2O[C@H](CO)[C@@H](O)C2(F)F)c(=O)n1", "note": "[gemcitabine]", "values": [
      {"measurement": "growth of SP cells on drug treatment", "setting": "SW1990-SP cells [1]", "value": "continued to grow even after 4, 10 and 20 days of treatment"},
      {"measurement": "percentage of cell death (FACS-apoptosis analysis, PI staining)", "setting": "SW1990-SP cells [2]; hPaf1/PD2 knockdown SP cells with gemcitabine treatment compared to control cells", "value": "increased percentage of cell death"},
      {"measurement": "viability of SP cells", "setting": "SW1990-SP cells [2]; seven days gemcitabine with transient knockdown (72 hours) of hPaf1/PD2 in SW1990-SP cells", "value": "decreased the viability of SP cells"},
      {"measurement": "cell death of NSP cells on drug treatment", "setting": "SW1990 NSP cells", "value": "Cell death was observed"},
      {"measurement": "expression of ALDH1 (western blot)", "setting": "ALDH1", "value": "significantly elevated expression of ALDH1"},
      {"measurement": "expression of hPaf1/PD2 (western blot)", "setting": "hPaf1/PD2", "value": "maintained"}
    ]}
  ]
}
